In patent US20110217337A1, “BIOACTIVE AGENT FOR BONE TISSUE ENGINEERING” (UNIVERSITY OF CONNECTICUT, priority 2010, published 2011):

Columns and labels:
[1] = test system: Protein Kinase A (PKA); details: compared to non-specific cAMP analogue db-cAMP; cited from earlier work
[2] = test system: rat mesenchymal stem cells; assay: ALP activity in mesenchymal stem cells; type: cell-based; details: vs untreated control; day 7
Procedure: FIG. 10. ALP activity in untreated (control) rat mesenchymal stem cells and cells treated with BMP-2 or 6-Bnz-cAMP. A-BMP-2 peptide; E-6-Bnz-cAMP; F-Control. […] ALP activities of mesenchymal stem cells were induced by 6-Bnz-cAMP at day 7.
Cell adhesion, proliferation, and differentiation studies: Rabbit MSCs are plated onto PLAGA matrices at a plating density of 1×10^4 cells/cm^2 and cultured in standard basal medium. Four experimental groups are tested: (1) untreated cells, (2) 6-Bnz-cAMP treated cells, (3) BMP-2 treated cells, and (4) 6-Bnz-cAMP and BMP-2 treated cells. […] Initial cell adhesion is determined at 1 h, 3 h, 12 h, and 24 h. Cell proliferation and cell differentiation are determined at 1, 7, 14, and 21 days. Calcium deposition and ALP activity is also measured at days 3, 7, 14, and 21 in untreated cells compared to cells treated with BMP-2 or 6-Bnz-cAMP (FIGS. 9 and 10). […] For the cell adhesion assay, attached cells are quantified by crystal violet stain, a method routinely used to measure the initial cell adhesion. Cell proliferation is measured using a commercially available proliferation assay kit, MTS (Promega). For alkaline phosphatase (ALP) activity, the early markers of osteoblast differentiation are determined with a commercially availia ALP assay kit (Bio-rad). […]

O=C(Nc1ncnc2c1ncn2C1O[C@@H]2COP(=O)([O-])O[C@H]2[C@H]1O)c1ccccc1.[Na+] (some centres unmarked) [6-Bnz-cAMP, N^6-Benzoyladenosine-3′,5′-cyclic monophosphate]
activation of the Protein Kinase A (PKA) pathway [1]: selectively activates | ALP activity [2]: increases ALP activity
